Here are results for eight molecules from patent US20090275608A1, “Methods of diagnosing and treating parp-mediated diseases” (BiPar Sciences, Inc., priority 2008, published 2009).

“Also recorded” adds a separate entry of the source.

The subject of experiment [1] is HCC827 cells. The experiment in a line: FACS cell cycle analysis (PI DNA content), Compound III with EGFR inhibitor. It counts as cell-based, human. As to the method:
(§1) The effects of Compound III and its nitroso metabolite on the cell cycle in cancer cell lines in combination with second agents were determined.
(§2) Compound III and Compound III-1 compounds were tested in the presence of the second agent according the schedule indicated in the Table below.
(§3) Cell Culture: Triple negative MDA-MB-468 human breast carcinoma, U251 human glioblastoma and lung adenocarcinoma HCC827 cells were cultured in Dulbecco Modified Eagle Medium with 10% fetal bovine serum. Cells were plated at a seeding density 10^5 per P100 or at 10^4 per P60 in growth media and incubated 12-18 h at 37° C., 5% CO2. Compounds with and without secondary agent (see Table 1) were added as a single dose for 72 hours. DMSO was used as a control. Following treatment, cells were analyzed with BrdU ELISA Assay (Roche Applied Science), FACS based cell cycle assay or TUNEL.
(§4) Compounds: Compound III was dissolved directly from dry powder in DMSO (cat #472301, Sigma-Aldrich) for each separate experiment, then the entire volume of the stock solution was used to prepare 111 nM, 313 nM and 1 μM working concentrations in cell culture medium to avoid any possibility of precipitation and the corresponding loss of compound.
(§5) PI Exclusion, Cell Cycle and TUNEL Assays (FACS): After the addition of drugs and incubation, cells were taken for counting and PI (Propidium Iodide) exclusion assay. One part of the cells was centrifuged and resuspended in 0.5 ml ice-cold PBS containing 5 μg/ml of PI. The other part of the cells was fixed in ice-cold 70% ethanol and stored in a freezer overnight. For cell cycle analysis, cells were stained with propidium iodide (PI) using standard procedures. Cellular DNA content was determined by flow cytometry using BD LSRII FACS, and the percentages of cells in G1, S or G2/M were determined using ModFit software.

The subject of experiment [2] is MDA-MB-468 cells. The experiment in a line: FACS cell cycle analysis (PI DNA content), Compound III with IGF1R inhibitor. The experiment is classed as cell-based, human. The conditions noted are these: for G1 / G2/M / S / Sub-G1: MDA-MB-468. As to the method: as §1, §2, §3, §4, §5
For experiment [3], the system named is OVCAR-3 xenograft. The experiment in a line: human ovarian adenocarcinoma OVCAR-3 xenograft model of cancer. It counts as in vivo, mice. An excerpt:
Xenograft cancer models can be employed to measure the effects of treatment of PARP and co-regulated gene modulators on cancer growth and progression.
Moreover, ovarian adenocarcinoma OVCAR-3 cells produce IGF-I and IGF-II, and express IGF1R, supporting the existence of an autocrine loop.

Experiment [4] relates to HCC827 cells. The experiment in a line: TUNEL apoptosis assay (FACS), Compound III with EGFR inhibitor. It counts as cell-based, human. The following applies: GFT 2 nM + 201 0 μM. As to the method:
as §3, §4
(§6) To detect apoptosis, the cells were labeled with the “In Situ Cell Death Detection Kit, Fluorescein” (Roche Diagnostics Corporation, Roche Applied Science, Indianapolis, Ind.). […] All cell samples were analyzed with a BD LSR II (BD Biosciences, San Jose, Calif.). […]

Experiment [5] relates to OVCAR-3 xenograft. The following applies: previous studies, Gotlieb et al., 2006; cited from earlier work.
The subject of the next experiment is OVCAR-3 cells. The following applies: OVCAR-3 cell line, Gotlieb et al., 2006; cited from earlier work.
The next experiment deals with OVCAR-4 cells. The following applies: OVCAR-4 cell line, Gotlieb et al., 2006; cited from earlier work.
Another experiment has as its system NFκB. The conditions noted are these: multiple myeloma cells, Hideshima et al., 2002; cited from earlier work.
The subject of experiment [6] is MDA-MB-468 cells. The experiment in a line: TUNEL apoptosis assay (FACS), Compound III with IGF1R inhibitor. The experiment is classed as cell-based, human. As to the method:
as §3, §4, §6

Experiment [7] concerns MDA-MB-468 cells. The experiment in a line: cell counting and PI exclusion assay (cell survival), Compound III with IGF1R inhibitor. It counts as cell-based, human. As to the method: as §3, §4
PI Exclusion, Cell Cycle and TUNEL Assays (FACS): After the addition of drugs and incubation, cells were taken for counting and PI (Propidium Iodide) exclusion assay. One part of the cells was centrifuged and resuspended in 0.5 ml ice-cold PBS containing 5 μg/ml of PI. […] Cellular DNA content was determined by flow cytometry using BD LSRII FACS, and the percentages of cells in G1, S or G2/M were determined using ModFit software.

Experiment [8] relates to MDA-MB-468 cells. The experiment in a line: BrdU labeling assay (FACS / ELISA), Compound III with IGF1R inhibitor. The experiment is classed as cell-based, human. As to the method: as §3, §4
Bromodeoxyuridine (BrdU) labeling assay and FACS-based cell cycle analysis: 50 μl of BrdU (Sigma Chemical Co., St. Louis, Mo.) stock solution (1 mM) was added to achieve final concentration of 10 μM BrdU. Then cells were incubated for 30 min at 37° C. and fixed in ice-cold 70% ethanol and stored at 4° C. overnight. […] All cell samples were analyzed with a BD LSR II (BD Biosciences, San Jose, Calif.). […]

The next experiment has as its system NF-κB. The following applies: HeLa cells; cited from earlier work.

For `NC(=O)c1ccc(I)c([N+](=O)[O-])c1` [Compound III], the “potentiation of the activity of the EGF-R inhibitor IRESSA” value with HCC827 cells [1] (HCC827 cell line) was “potentiate the activity of the EGF-R inhibitor IRESSA®”. The “potentiation of the activity of IGF-1R inhibitor Picropodophyllin (PPP)” value with MDA-MB-468 cells [2] (triple negative breast cancer cells MDA-MB-468, FIG. 19) is “potentiates the activity of IGF-1R inhibitor Picropodophyllin (PPP)”. Moreover, the “tumor growth, combination of PARP inhibitor and IGF1R inhibitor” value with OVCAR-3 xenograft [3] (Compound III combined with NVP-AEW541, expected from the single-agent data) was “inhibit tumor growth in mice even further”. Besides, the survival of mice result with OVCAR-3 xenograft [3] (OVCAR-3 xenograft, FIG. 18) was “improve survival of mice; also recorded: improval of survival of mice”. The tumor growth entry in the experiment with OVCAR-3 xenograft [3] (PARP1 inhibition by Compound III, OVCAR-3 xenograft in mice, FIG. 18) is listed as “inhibit tumor growth”.
Consider `COc1cc2ncnc(Nc3ccc(F)c(Cl)c3)c2cc1OCCCN1CCOCC1` [GFT], for which, in the experiment with HCC827 cells [4], the “TUNEL(+)” value amounted to 6.2. Moreover, in the experiment with HCC827 cells [1] (HCC827, GFT 2 nM + 201 0 μM), the G1 is recorded as 51.0, the G2/M was 9.2, the S was found to be 34.4 and the Sub-G1 stood at 3.4.
For `Nc1ncnc2c1c(-c1cccc(OCc3ccccc3)c1)cn2C1CC(CN2CCC2)C1` (stereo not shown) [NVP-AEW541], the “growth of OVCAR-3 tumor” value with OVCAR-3 xenograft [5] is listed as “can inhibit growth of OVCAR-3 tumor”. For the same molecule, the “growth of the cells” value with OVCAR-3 cells and with OVCAR-4 cells was “inhibited growth of the cells” throughout.
Turning to `O=C(Nc1cc(Cl)cc2c1[nH]c1cnccc12)c1cccnc1` [PS-1145], the NFκB activation entry with NFκB was “blocked NFκB activation”.
For `COc1cc([C@@H]2c3cc4c(cc3[C@H](O)[C@H]3COC(=O)[C@@H]23)OCO4)cc(OC)c1OC` [Picropodophyllin], the results for the “TUNEL(+)” value with MDA-MB-468 cells [6] (PPP 200 nM + 201 0 uM) and with MDA-MB-468 cells [6] (PPP 400 nM + 201 0 uM) were 0.9 and 4.1, respectively. Besides, the entries for the “Vital Cell” value with MDA-MB-468 cells [7] (PPP 200 nM + 201 0 uM) and with MDA-MB-468 cells [7] (PPP 400 nM + 201 0 uM) were 89 and 60, respectively. Besides, the entries for the “BrdU(−) S” value with MDA-MB-468 cells [8] (PPP 200 nM + 201 0 uM) and in the experiment with MDA-MB-468 cells [8] (PPP 400 nM + 201 0 uM) were 2.13 and 9.45, respectively. Moreover, the values for the G1 in the experiment on MDA-MB-468 cells [2] (PPP 200 nM + 201 0 uM) and in the experiment with MDA-MB-468 cells [2] (PPP 400 nM + 201 0 uM) were 51.42 and 37.29, respectively. Besides, the G2/M turned out to be 15.01 with MDA-MB-468 cells [2] (PPP 200 nM + 201 0 uM) and 20.17 in the experiment on MDA-MB-468 cells [2] (PPP 400 nM + 201 0 uM). For the same molecule, the S worked out at 30.22 with MDA-MB-468 cells [2] (PPP 200 nM + 201 0 uM) and 25.32 in the experiment on MDA-MB-468 cells [2] (PPP 400 nM + 201 0 uM). In addition, the figures for the Sub-G1 with MDA-MB-468 cells [2] (PPP 200 nM + 201 0 uM) and with MDA-MB-468 cells [2] (PPP 400 nM + 201 0 uM) were 1.22 and 7.77, respectively.
On to `CCc1c2c(nc3ccc(O)cc13)-c1cc3c(c(=O)n1C2)COC(=O)[C@]3(O)CC` [SN38, 7-ethyl-10-hydroxycamptothecin], for which, in the experiment with NF-κB, the “NF-κB nuclear translocation and activation of NF-κB target genes” value is “induce NF-κB nuclear translocation and activation of NF-κB target genes”.
Take `CC(C)C[C@H](NC(=O)[C@H](Cc1ccccc1)NC(=O)c1cnccn1)B(O)O` [bortezomib]: the NFκB activation entry in the experiment with NFκB is “blocked NFκB activation”.
On to `COc1cccc2c1C(=O)c1c(O)c3c(c(O)c1C2=O)C[C@@](O)(C(=O)CO)C[C@@H]3O[C@H]1C[C@H](N)[C@H](O)[C@H](C)O1` [doxorubicin], for which, in the experiment with NF-κB, the “NF-κB nuclear translocation and activation of NF-κB target genes” value is “induce NF-κB nuclear translocation and activation of NF-κB target genes”.
